T1: AdipoR1 (Mus musculus, UniProt Q91VH1)
T1 construct: C2C12 cells (ATCC; CRL-1772, medium; host or cells: differentiated C2C12
T1 sequence (Q91VH1 1-375): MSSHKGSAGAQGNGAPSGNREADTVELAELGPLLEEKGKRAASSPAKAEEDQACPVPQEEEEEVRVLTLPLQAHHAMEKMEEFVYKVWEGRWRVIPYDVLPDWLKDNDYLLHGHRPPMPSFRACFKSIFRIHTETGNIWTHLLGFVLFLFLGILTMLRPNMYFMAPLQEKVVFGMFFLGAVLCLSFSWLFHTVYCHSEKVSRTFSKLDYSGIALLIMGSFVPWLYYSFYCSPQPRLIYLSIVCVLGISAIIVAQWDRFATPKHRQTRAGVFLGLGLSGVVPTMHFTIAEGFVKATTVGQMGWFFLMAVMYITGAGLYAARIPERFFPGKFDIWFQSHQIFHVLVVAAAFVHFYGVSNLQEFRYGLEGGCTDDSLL


What was measured:
AdipoR1 [1] = biological target: T1, AdipoR1; experiment: Measurement of AMPK phosphorylation ability (Assay 1), differentiated C2C12 cells, Western blotting; format: cell-based; details: 10 μM, 10 minutes
Experimental: The AMPK phosphorylation ability of the respective compounds according to the present invention was measured by using differentiated C2C12 cells or HEK 293T cells.
C2C12 cells (ATCC; CRL-1772, medium; DMEM, 10% FBS) were cultured in a 12- or 24-well plate until they reached 100% confluency (37° C., 5% CO2).
The medium was changed to 2.5% Horse Serum (HS) and differentiation was started. The medium (DMEM, 2.5% HS) was replaced every three days.
After starvation, a test compound listed in Table 12 (concentration: 10 μM) was added thereto, and after 10 minutes, the medium was discarded and the plate was frozen with liquid nitrogen.
To the 12- or 24-well cell plate which had been frozen was added 100 or 150 μL of Cell lysis buffer pH 7.4 (50 mM HEPES (pH 7.4), 2 mM sodium orthovanadate, 10 mM sodium pyrophosphate, 10 mM NaF, 2 mM EDTA, 2 mM EGTA, 0.1% (v/v) NP-40, 0.2 mM PMSF), and the cells were scraped off with a cell scraper, suspended and transferred into a micro centrifugal tube. And then, the cells were ultrasonically crushed (1 second×3 times) with a sonicator. Centrifugation was performed at 4° C. at 15,000 rpm for 15 minutes, and the supernatant was recovered into a new tube.
To 100 μL of the supernatant was added 25 μL of 5× sample buffer (280 mM Tris-HCl (pH 6.9), 40% glycerol, 10% (3-mercaptoethanol, 13% SDS, a small amount of bromophenol blue) and mixed together. The rest of the supernatant was used for protein quantification, and the protein concentrations were uniformed by adding 1× sample buffer depending on the concentration of each sample.
An electrophoresis chamber was filled with 1× SDS buffer (25 mM Tris-HCl, 250 mM glycine, 0.1% SDS), and the sample was applied to a well of polyacrylamide gel. Electrophoresis was performed until the bromophenol blue in the sample reached to the bottom of the gel.
A filter paper was soaked in 1× Transfer buffer sufficiently, above which the PVDF membrane and the gel after electrophoresis were stacked in this order, and thereabove a filter paper which had been soaked in 1× Transfer buffer sufficiently was further stacked, from which an air was removed and the resultant was set in semi-dry type transfer apparatus and transferred (7V, 35 minutes).
An unnecessary portion of the blotted membrane was cutoff, and the rest was immediately soaked in blocking buffer (5% skimmed milk in Rinse buffer), and shaken at room temperature at 40 rpm for 3 hours.
After blocking, the membrane was transferred into Rinse buffer, and washed at room temperature for 10 minutes while shaking. The membrane was soaked in a primary antibody solution (AMPK alpha Antibody (Cell signaling; #2532) 1/1,000 in Rinse buffer, Phospho-AMPK alpha (Thr172) (40H9) antibody (Cell signaling; #2535) 1/1,000 in Rinse buffer), and shaken at 4° C. at 40 rpm overnight.
The membrane was soaked in a secondary antibody solution (goat anti-rabbit IgG-HRP Antibody (Santa Cruz; sc-2030) 1/2,000 in Rinse buffer), and shaken at room temperature at 40 rpm for 1 hour.
After the membrane was washed for 45 minutes in the same way as after the primary antibody reaction, the membrane was soaked in a chemiluminescent reaction solution (ECL Western Blotting Detection Reagents, GE Healthcare) for about 1 minute. An excess of the reaction solution was removed, and then the membranes were arranged on a transparent film and sandwiched with it, with which an X-ray film was exposed in a darkroom (for about several seconds to 60 seconds) to develop the film.
The X-ray film was scanned to take the image, for which the band was measured by using the image analysis software “Image J” to determine the respective amounts of pAMPK and AMPK.

AdipoR1 [2] = experiment: Measurement of AMPK phosphorylation ability (Assay 2), C2C12 cells with unrelated or AdipoR1 siRNA; format: cell-based, Mouse
Experimental: C2C12 cells (ATCC; CRL-1772, medium; DMEM, 10% Fetal Bovine Serum (FBS)) were cultured in a 12- or 24-well plate until they reached 100% confluency (37° C., 5% CO2). The medium was changed to DMEM, 2.5% Horse Serum (HS) and differentiation was started. The medium (DMEM, 2.5% HS) was replaced two days after the start of differentiation. The medium (DMEM, 2.5% HS) was further replaced two days after that.
On the next day following the replacement of the medium, first, 1 μL of Lipofectamine RNAiMAX and 50 μL of OPTI-MEM were mixed, and then 5 μM siRNA (sense siRNA sequence: […]tt (SEQ ID NO: 1)) and 50 μL of OPTI-MEM were mixed and the resultants were left to stand at room temperature for 5 minutes. And then, the 1 μL Lipofectamine RNAiMAX/50 μL OPTI-MEM and the 5 μM siRNA/50 μL OPTI-MEM were mixed, and the resultant was left to stand at room temperature for 10 minutes, which was added to the cells.
After 5 minutes, the medium (DMEM, 2.5 HS) was replaced, and after starvation on the next day, a test compound listed in Table 12 was added thereto. After 10 minutes, the medium was discarded and the plate was frozen with liquid nitrogen.
The respective amounts of pAMPK and AMPK were determined in the same way as in the above Assay 1.

[3] = tested on: HF diet-induced obese mice; experiment: Oral glucose tolerance test and insulin tolerance in HF diet-induced obese mice; format: in vivo; details: mice, FIG. 7
Experimental: The original Adipor1^+/−/Adipor2^+/− mice (C57BL/6 and 129/Sv mixed background)^a were backcrossed with C57B1/6 mice more than seven times. All experiments in this study were conducted on male littermates.
(§1) Mice were 6-10 week of age at the time of the experiment. They were housed in cages and maintained on a 12 hr light-dark cycle.
(§2) Plasma glucose levels were determined by using a glucose B-test (Wako Pure Chemical Industries). Plasma insulin was measured with an insulin immunoassay (Shibayagi). Plasma NEFAs (Wako Pure Chemical Industries) were assayed by enzymatic methods.
(§3) The oral glucose tolerance test (OGTT) and insulin tolerance test (ITT) were conducted as previously described^a,b with slight modifications. The areas of the glucose and insulin curves were calculated by multiplying the cumulative mean height of the glucose values (1 mg/ml=1 cm) and insulin values (1 ng/ml=1 cm), respectively, by time (60 min=1 cm)^c,a. The insulin resistance index was calculated from the product of the areas of glucose and insulin×10^−2 in the glucose tolerance test. The results are expressed as the percentage of the value respect to control littermates.

Lepr−/− (db/db) mice = experiment: Anti-diabetic effects in db/db mice; format: in vivo; details: intraperitoneal (IP) injection
Experimental: as §1
Male Lepr^−/− (aged 6-10 week) were purchased from Jackson Laboratory. When the mice in the same genotype received different treatments, they were randomly assigned to treatment groups.
as §2, §3

pAMPK/AMPK (%) (AdipoR1 [1]) | Molecule | pAMPK/AMPK (ratio) siRNA, AdipoR1 siRNA (AdipoR1 [2]) | pAMPK/AMPK (ratio) siRNA, unrelated siRNA (AdipoR1 [2]) | glucose intolerance and insulin resistance [3] | plasma glucose level (Lepr−/− (db/db) mice)
91.22% | COc1ccccc1CN1CCC(Oc2ccc(C(=O)NC3CCCC3)cc2Cl)CC1 [No. 272299] | 2.60 ratio | 2.83 ratio | – | –
81.88% | COCCNC(=O)c1ccc(OC2CCN(Cc3cccc4nonc34)CC2)c(Cl)c1 [No. 484140] | 2.30 ratio | 2.34 ratio | – | –
89.26% | CCc1ccc(CN2CCC(Oc3ccc(C(=O)NCCOC)cc3Cl)CC2)cc1 [No. 466151] | 1.94 ratio | 2.22 ratio | – | –
81.90% | O=C(NCC[C@@H]1C[C@@H]2C=C[C@H]1C2)c1ccc(OC2CCN(Cc3ccccn3)CC2)cc1 [No. 260544] | 4.12 ratio | 3.79 ratio | – | –
86.36% | C#CCN(Cc1ccco1)C(=O)c1ccc(OC2CCN(Cc3ccccn3)CC2)cc1 [No. 268949] | 2.82 ratio | 3.10 ratio | – | –
84.20% | CC#CCN(Cc1ccco1)C(=O)c1ccc(OC2CCN(Cc3ccccn3)CC2)cc1 [No. 272350] | 2.54 ratio | 2.03 ratio | – | –

The next lines start with the molecule.

Molecule | pAMPK/AMPK (%) (AdipoR1 [1]) | pAMPK/AMPK (ratio) siRNA, AdipoR1 siRNA (AdipoR1 [2]) | pAMPK/AMPK (ratio) siRNA, unrelated siRNA (AdipoR1 [2]) | glucose intolerance and insulin resistance [3] | plasma glucose level (Lepr−/− (db/db) mice)
COc1ccc(CN2CCN(C(=O)CCNC(=O)c3ccc(C(C)(C)C)cc3)CC2)cc1 [Compound 74, 4-tert-butyl-N-(3-{4-[(4-methoxyphenyl)methyl]piperazin-1-yl}-3-oxopropyl) benzamide] | 86.43% | 2.07 ratio | 3.70 ratio | could improve glucose intolerance as well as insulin resistance | –
COCc1ccc(CN2CCC(Oc3ccc(C(=O)NC4CCCC4)cc3Cl)CC2)o1 [No. 195831] | 99.10% | 2.98 ratio | 2.88 ratio | – | –
CC(C)(C)CN1CCC(Oc2ccc(C(=O)NCCc3ccncc3)cc2Cl)CC1 [No. 200737] | 83.71% | 2.68 ratio | 2.13 ratio | – | –
COc1ccc(CN2CC[C@@]2(C)C(=O)NC2CCN(Cc3ccccc3)CC2)c2ccccc12 [No. 168198] | 84.85% | 2.97 ratio | 4.53 ratio | – | –
CCOc1cccc(CN2CCC(Oc3ccc(C(=O)NCCOC)cc3Cl)CC2)c1 [No. 214617] | 91.97% | 2.78 ratio | 2.21 ratio | – | –
COCCNC(=O)c1ccc(OC2CCN([C@@H](C)COc3ccccc3)CC2)c(Cl)c1 [No. 211156] | 93.79% | 2.59 ratio | 2.36 ratio | – | –
CCOCCCNC(=O)c1ccc(OC2CCN(CC(C)(C)C)CC2)c(Cl)c1 [No. 209705] | 81.28% | 1.81 ratio | 1.52 ratio | – | –
adiponectin: antidiabetic and antiatherogenic adipokine; mouse full-length adiponectin was generated as previously described (protein, UniProt Q60994 1-247, looked up, full-length, antidiabetic and antiatherogenic adipokine; mouse full-length adiponectin was generated as previously described) MLLLQALLFLLILPSHAEDDVTTTEELAPALVPPPKGTCAGWMAGIPGHPGHNGTPGRDGRDGTPGEKGEKGDAGLLGPKGETGDVGMTGAEGPRGFPGTPGRKGEPGEAAYVYRSAFSVGLETRVTVPNVPIRFTKIFYNQQNHYDGSTGKFYCNIPGLYYFSYHITVYMKDVKVSLFKKDKAVLFTYDQYQEKNVDQASGSVLLHLEVGDQVWLQVYGDGDHNGLYADNVNDSTFTGFLLYHDTN | – | – | – | – | decreased plasma glucose level
